Experimental findings from ChEMBL document CHEMBL4402613, “Targeting ALK2: An Open Science Approach to Developing Therapeutics for the Treatment of Diffuse Intrinsic Pontine Glioma” (J Med Chem, 2020) are described below.

The target of series [1] is T1, TGF-beta receptor type-1 (Homo sapiens, UniProt P36897).
T1 sequence (P36897 whole entry): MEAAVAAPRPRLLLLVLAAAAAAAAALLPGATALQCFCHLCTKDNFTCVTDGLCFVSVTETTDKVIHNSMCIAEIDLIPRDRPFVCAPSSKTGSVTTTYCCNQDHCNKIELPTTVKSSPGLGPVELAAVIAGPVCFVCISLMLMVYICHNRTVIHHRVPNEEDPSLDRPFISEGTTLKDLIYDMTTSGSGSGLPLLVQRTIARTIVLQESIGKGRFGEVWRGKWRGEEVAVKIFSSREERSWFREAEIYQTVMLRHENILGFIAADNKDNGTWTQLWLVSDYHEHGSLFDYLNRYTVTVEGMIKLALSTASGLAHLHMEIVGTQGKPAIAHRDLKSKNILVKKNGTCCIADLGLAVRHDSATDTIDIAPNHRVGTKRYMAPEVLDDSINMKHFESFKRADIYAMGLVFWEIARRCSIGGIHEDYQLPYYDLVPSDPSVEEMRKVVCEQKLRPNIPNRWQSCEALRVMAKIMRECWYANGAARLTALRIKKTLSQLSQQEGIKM
The format is single protein.
Description: Inhibition of human ALK5 using casein as substrate in presence of 10 uM [gamma33P] ATP by radioactive assay

Series [2] concerns the target T2, Activin receptor type-1 (Homo sapiens, UniProt Q04771).
T2 sequence (Q04771 whole entry): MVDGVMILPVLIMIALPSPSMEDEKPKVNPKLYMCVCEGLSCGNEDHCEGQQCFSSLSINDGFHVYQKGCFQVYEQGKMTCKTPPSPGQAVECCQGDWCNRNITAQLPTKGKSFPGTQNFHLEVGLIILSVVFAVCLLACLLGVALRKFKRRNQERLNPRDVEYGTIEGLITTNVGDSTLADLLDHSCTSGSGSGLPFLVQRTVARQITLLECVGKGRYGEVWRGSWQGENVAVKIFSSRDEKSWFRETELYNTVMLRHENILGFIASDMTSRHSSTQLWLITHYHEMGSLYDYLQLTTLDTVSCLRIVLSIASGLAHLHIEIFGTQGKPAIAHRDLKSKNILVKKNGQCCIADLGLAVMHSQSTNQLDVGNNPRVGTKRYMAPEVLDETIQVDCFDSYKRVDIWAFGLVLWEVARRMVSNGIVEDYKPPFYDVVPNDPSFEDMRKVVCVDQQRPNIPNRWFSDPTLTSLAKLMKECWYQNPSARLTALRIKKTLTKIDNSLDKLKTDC
The experiment in a line: Inhibition of C-terminal nanoluciferase-fused ALK2 (unknown origin) expressed in HEK293 cells incubated for 2 hrs followed by NanoBRET NanoGlo Substrate addition by NanoBRET assay. The format is cell-based. Background: In BRET a luciferase serves as donor, and the signal depends on an acceptor being close.

For series [3], the target named is T1, TGF-beta receptor type-1. The format is cell-based, HEK293.
Description: Inhibition of ALK5 (unknown origin) expressed in HEK293 cells transfected with CAGA-luciferase and Renilla luciferase reporter measured after 24 hrs by dual luciferase reporter assay
Series [4] addresses Activin receptor type-1-like (Homo sapiens) (UniProt P37023). Kind of series: Inhibition of ALK1 (unknown origin) at 1 uM.
For series [5], the target named is Bone morphogenetic protein receptor type-1A (Homo sapiens) (UniProt P36894). Kind of series: Inhibition of ALK3 (unknown origin) at 1 uM.
Series [6] concerns the target Bone morphogenetic protein receptor type-1B (Homo sapiens) (UniProt O00238). The experiment in a line: Inhibition of ALK6 (unknown origin) at 1 uM.
The target in series [7] is T3, Serine/threonine-protein kinase A-Raf (Homo sapiens) (UniProt P10398).
T3 sequence (whole entry): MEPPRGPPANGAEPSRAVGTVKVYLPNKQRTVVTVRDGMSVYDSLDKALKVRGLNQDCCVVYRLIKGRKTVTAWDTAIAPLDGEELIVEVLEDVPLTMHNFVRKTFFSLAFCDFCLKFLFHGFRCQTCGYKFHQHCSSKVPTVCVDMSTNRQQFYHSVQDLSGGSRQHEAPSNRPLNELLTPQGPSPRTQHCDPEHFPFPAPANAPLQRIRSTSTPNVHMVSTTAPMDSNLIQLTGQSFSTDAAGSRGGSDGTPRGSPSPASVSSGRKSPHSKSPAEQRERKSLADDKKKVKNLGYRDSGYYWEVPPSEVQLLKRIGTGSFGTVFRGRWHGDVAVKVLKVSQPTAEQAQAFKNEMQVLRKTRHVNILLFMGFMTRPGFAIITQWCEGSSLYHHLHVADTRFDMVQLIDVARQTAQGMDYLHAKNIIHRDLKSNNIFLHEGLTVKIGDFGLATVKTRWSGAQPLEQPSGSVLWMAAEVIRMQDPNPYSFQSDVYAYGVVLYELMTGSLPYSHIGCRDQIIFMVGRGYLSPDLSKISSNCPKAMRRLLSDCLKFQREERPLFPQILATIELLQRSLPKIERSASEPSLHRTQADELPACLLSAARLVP
Kind of series: Inhibition of ARAF (unknown origin) at 1 uM.

In series [8] the target is Mitogen-activated protein kinase kinase kinase kinase 4 (Homo sapiens) (UniProt O95819). Kind of series: Inhibition of MAP4K4 (unknown origin) at 1 uM.
In series [9] the target is Misshapen-like kinase 1 (Homo sapiens) (UniProt Q8N4C8). Kind of series: Inhibition of MINK (unknown origin) at 1 uM.
Series [10] concerns the target T4, Non-receptor tyrosine-protein kinase TNK1 (Homo sapiens) (UniProt Q13470).
T4 sequence (whole entry): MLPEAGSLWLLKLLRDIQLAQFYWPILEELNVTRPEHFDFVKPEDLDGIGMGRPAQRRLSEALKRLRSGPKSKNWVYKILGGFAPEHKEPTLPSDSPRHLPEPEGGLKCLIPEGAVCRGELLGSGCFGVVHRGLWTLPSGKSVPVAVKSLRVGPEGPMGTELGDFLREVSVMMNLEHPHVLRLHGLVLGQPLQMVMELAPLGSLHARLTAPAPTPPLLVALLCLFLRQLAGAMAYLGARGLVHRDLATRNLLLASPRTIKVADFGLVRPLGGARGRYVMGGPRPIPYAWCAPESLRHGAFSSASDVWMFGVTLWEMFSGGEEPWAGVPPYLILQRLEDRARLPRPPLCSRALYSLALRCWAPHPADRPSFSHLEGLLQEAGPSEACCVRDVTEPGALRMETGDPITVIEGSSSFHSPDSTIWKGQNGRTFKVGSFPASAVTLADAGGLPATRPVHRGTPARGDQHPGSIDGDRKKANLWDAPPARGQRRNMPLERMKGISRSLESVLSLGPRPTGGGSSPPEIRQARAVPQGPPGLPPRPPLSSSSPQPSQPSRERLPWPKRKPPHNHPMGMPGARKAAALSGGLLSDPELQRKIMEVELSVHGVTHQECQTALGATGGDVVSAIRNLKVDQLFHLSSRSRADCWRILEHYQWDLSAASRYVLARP
Kind of series: Inhibition of TNK1 (unknown origin) at 1 uM.

The target in series [11] is T2, Activin receptor type-1.
Description: Inhibition of human ALK2 using casein as substrate in presence of 10 uM [gamma33P] ATP by radioactive assay
The target in series [12] is Voltage-gated inwardly rectifying potassium channel KCNH2 (Homo sapiens, UniProt Q12809).
Description: Inhibition of human ERG expressed in HEK293 cells measured after 5 mins by whole cell patch clamp method
The conditions of series [13]: mouse, microsomes, 1 h, 1 µM.
Description: Microsomal stability in CD-1 mouse liver microsomes assessed as parent compound remaining at 1 uM and 37 degree C measured after 60 mins in presence of NADP+ by LC-QTOF/MS analysis
The conditions of series [14]: human, microsomes, 1 h, 1 µM.
Description: Microsomal stability in human liver microsomes assessed as parent compound remaining at 1 uM and 37 degree C measured after 60 mins in presence of NADP+ by LC-QTOF/MS analysis
Series [15] is described as follows: in vitro. The following applies: human, Caco-2.
Description: Apparent permeability across apical to basolateral membrane in human Caco2 cells at 5 uM incubated for 120 mins in orbital shaker by LC-QTOF/MS analysis
Series [16] is described as follows: in vitro. The following applies: human, Caco-2. The source holds these as a separate data set.
Description: Apparent permeability across basolateral to apical membrane in human Caco2 cells at 5 uM incubated for 120 mins in orbital shaker by LC-QTOF/MS analysis

Structures are written as SMILES. Calls of active or inactive are those of the source. No cut-off for these calls is given here. Some results are limits rather than exact numbers.

A word on the IC50: it is the midpoint of a concentration-inhibition curve. As usually defined, the Papp A→B is how fast a substance crosses the layer from the apical side. Low values mean poor permeation, high ones ready permeation. For orientation: Papp B→A means the apparent permeability from the basolateral to the apical side of a cell layer.

Bone morphogenetic protein receptor type-1A (Homo sapiens), sequence (P36894 whole entry): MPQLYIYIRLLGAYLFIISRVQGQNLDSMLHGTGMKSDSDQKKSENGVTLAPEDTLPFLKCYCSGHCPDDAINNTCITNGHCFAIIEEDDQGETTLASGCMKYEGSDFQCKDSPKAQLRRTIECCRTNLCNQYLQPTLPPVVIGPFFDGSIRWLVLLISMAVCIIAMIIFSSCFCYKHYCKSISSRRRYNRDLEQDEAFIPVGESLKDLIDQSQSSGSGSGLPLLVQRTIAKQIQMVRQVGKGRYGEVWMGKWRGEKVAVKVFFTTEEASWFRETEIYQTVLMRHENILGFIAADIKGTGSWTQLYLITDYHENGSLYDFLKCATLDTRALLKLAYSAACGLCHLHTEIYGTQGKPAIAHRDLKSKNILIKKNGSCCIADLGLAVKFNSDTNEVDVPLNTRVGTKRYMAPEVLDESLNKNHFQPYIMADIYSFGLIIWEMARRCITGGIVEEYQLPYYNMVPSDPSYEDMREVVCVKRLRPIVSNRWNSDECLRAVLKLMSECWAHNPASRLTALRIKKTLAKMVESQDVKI
Voltage-gated inwardly rectifying potassium channel KCNH2, sequence (Q12809 whole entry): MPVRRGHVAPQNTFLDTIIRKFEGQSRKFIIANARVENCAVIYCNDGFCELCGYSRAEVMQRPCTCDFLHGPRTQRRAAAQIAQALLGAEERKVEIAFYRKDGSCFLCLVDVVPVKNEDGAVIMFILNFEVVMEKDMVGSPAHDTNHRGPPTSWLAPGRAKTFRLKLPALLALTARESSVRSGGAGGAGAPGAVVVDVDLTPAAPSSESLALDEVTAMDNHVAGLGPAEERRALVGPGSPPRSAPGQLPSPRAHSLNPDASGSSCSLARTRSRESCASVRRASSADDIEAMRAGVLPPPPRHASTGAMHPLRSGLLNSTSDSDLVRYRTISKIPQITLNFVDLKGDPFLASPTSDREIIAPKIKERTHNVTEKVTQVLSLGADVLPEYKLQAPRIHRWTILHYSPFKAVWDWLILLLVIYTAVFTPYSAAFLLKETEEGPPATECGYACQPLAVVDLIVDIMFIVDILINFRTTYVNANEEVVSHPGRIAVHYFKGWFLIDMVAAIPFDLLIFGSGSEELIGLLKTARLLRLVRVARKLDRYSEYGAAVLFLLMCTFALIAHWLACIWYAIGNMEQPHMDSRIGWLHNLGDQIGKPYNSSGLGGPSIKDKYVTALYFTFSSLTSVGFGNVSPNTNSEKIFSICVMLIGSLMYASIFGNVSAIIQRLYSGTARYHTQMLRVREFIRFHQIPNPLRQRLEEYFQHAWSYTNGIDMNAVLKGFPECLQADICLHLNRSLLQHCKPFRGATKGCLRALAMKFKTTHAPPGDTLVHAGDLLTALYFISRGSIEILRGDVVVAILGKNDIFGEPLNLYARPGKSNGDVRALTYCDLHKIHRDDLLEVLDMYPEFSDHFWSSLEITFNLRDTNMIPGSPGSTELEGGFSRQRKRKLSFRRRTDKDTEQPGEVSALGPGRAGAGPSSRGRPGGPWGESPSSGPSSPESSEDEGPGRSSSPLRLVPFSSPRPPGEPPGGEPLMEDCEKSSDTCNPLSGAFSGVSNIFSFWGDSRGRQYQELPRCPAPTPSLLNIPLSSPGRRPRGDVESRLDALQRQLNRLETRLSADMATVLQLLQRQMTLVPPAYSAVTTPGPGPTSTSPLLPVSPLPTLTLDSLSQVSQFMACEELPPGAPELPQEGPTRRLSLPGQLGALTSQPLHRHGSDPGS
Activin receptor type-1-like (Homo sapiens), sequence (P37023 whole entry): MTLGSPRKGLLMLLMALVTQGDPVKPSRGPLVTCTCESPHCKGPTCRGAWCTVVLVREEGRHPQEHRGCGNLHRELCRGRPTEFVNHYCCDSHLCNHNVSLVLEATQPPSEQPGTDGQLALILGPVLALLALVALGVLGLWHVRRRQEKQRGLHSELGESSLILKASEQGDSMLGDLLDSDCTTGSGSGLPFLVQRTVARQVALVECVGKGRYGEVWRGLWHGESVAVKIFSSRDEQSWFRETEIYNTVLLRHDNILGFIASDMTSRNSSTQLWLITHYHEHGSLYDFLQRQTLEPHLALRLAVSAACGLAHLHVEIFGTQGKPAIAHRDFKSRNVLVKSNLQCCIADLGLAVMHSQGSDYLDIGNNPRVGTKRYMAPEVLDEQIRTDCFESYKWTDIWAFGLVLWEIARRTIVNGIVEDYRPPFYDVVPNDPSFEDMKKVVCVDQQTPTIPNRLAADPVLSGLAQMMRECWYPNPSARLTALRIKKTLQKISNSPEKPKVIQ
Misshapen-like kinase 1 (Homo sapiens), sequence (Q8N4C8 whole entry, looked up): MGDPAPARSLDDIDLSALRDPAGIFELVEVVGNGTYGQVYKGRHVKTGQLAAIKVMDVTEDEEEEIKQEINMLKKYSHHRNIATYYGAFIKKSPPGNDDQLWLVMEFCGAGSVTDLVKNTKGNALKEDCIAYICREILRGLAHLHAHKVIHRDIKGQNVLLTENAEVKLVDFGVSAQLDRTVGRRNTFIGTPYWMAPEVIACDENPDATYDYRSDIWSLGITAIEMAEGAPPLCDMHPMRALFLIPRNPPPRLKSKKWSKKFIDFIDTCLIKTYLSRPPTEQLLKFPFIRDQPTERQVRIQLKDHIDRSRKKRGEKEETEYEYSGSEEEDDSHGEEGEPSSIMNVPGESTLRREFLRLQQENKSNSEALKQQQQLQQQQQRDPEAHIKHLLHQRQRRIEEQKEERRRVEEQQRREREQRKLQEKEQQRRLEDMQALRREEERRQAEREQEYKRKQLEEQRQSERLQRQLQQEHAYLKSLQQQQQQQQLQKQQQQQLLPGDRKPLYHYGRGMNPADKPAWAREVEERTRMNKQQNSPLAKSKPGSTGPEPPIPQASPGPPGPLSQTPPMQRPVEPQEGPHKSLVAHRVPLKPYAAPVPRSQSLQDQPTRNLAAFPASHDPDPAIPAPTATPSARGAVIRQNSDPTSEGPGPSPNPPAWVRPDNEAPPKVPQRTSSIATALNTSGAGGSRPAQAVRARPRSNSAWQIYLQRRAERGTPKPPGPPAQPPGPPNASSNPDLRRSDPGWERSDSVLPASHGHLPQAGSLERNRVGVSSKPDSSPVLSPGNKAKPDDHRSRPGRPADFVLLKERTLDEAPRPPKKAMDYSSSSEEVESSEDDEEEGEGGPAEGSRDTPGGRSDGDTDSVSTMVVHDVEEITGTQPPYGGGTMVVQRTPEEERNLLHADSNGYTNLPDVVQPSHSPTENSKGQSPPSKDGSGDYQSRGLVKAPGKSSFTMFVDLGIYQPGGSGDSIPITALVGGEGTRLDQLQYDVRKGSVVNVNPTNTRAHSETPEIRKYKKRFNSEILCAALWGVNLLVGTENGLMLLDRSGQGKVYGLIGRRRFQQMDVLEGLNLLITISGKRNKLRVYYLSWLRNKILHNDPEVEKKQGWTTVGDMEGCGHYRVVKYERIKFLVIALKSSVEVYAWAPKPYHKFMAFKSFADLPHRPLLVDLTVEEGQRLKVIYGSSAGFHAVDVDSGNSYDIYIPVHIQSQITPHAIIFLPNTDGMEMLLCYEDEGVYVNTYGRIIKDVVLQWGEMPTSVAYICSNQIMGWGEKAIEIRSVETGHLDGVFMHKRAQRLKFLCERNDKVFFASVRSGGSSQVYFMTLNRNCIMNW
Bone morphogenetic protein receptor type-1B (Homo sapiens), sequence (O00238 whole entry): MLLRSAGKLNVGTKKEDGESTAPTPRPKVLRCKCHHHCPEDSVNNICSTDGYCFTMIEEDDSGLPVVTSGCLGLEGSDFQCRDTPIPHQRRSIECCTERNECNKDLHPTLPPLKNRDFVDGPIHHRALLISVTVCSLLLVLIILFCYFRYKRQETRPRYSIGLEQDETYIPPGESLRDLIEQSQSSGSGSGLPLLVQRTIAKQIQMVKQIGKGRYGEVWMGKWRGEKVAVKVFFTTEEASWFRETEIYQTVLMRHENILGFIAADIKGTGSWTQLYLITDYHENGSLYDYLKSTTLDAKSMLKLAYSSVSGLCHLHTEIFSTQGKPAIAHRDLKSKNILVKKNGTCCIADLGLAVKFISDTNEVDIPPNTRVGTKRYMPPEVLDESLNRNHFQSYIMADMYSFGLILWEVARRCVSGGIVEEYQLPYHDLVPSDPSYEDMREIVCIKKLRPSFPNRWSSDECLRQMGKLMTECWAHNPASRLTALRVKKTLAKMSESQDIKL

Regarding `COc1cc(-c2cncc(-c3ccc(N4C[C@@H](C)N(C)[C@@H](C)C4)cc3)c2C)cc(F)c1C(N)=O`, the IC50 in [1] was 2.91 µM; in series [2], 0.1 µM; in series [3] it was over 5 µM; in series [11], 0.01 µM; in series [12], 19 µM. Moreover, the inhibition result in [4], in series [5], in series [6], in [7], in series [8] and in [9] was “Active” each time. Moreover, in series [10], the inhibition entry is “Active”. For the same compound, the Stability entry in [13] and in series [14] was “Stable” throughout. This compound came in with a Papp A→B at 2 h, 5 µM in series [15] of 4.3 ×10⁻⁶ cm/s. The compound also registered a Papp B→A at 2 h, 5 µM in [16] of 14.5 ×10⁻⁶ cm/s.
